Measured values as given in patent US20250177115A1, “COMBINATORIAL THERAPIES INCLUDING IMPLANTABLE DAMPING DEVICES AND THERAPEUTIC AGENTS FOR TREATING A CONDITION AND ASSOCIATED SYSTEMS AND METHODS OF USE” (THE BRAIN PROTECTION COMPANY PTY LTD, priority 2021, published 2025).

Test system: TAC mice
Assay: Cognition (Y Maze, exploratory behaviour)
Format: in vivo
Experimental: FIG. 24 is a dot plot showing the % alterations in a Y maze in mice with an absorbable suture versus a plain suture, with and without treatment according to some embodiments. Measurement of the number of alternations within the 3 arms of a Y-Maze according to the following formula: % alternation=(total alternations/(total entries−2)×100).
Cognition (Y Maze—exploratory behaviour). Cognition was measured according to the number of behavior alterations within the three (3) arms of a Y Maze, as shown in FIGS. 23-24.

In the case of CCCCCCCCc1ccc(CCC(N)(CO)CO)cc1 [Fingolimod, fingolimod], the “mean % alteration in a Y maze” value (treated absorbable suture group, SEM=3.556, n=7) was 61.396% and the “mean % alteration in a Y maze” value (treated plain suture group, SEM=2.644, n=12) was 70.296%.
